In PubChem BioAssay AID1963846 (Molecular Pharmacology Branch, DTP, NCI, 2024):

Test system: 454973-116-R2-J3-PDC complex spheroid viability
Test: Anticancer human tumor 454973-116-R2-J3-PDC patient-derived pancreatic carcinoma cell line growth inhibition [POLQ]
Conditions: for IC50: curve of first compound; for viability, T/C: stronger effect = lower value
Summary of the method: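 Complex spheroid viability model combining PDC tumour cells with endothelial (HUVEC) and MSC stromal cells. Novobiocin, ART-558 or RP6685 were tested singly and in combination with standard and investigational anticancer drugs. Each was titrated in half-log steps from near clinical Cmax, or from 10 microM where Cmax was unknown.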
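Note: spheroids exposed to drugs for seven days before measurement.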
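Throughout, for viability, T/C: percent viability relative to DMSO vehicle control wells taken as 100%.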

CC(=O)O[C@H]1C(=O)[C@@]2(C)[C@H]([C@H](OC(=O)c3ccccc3)[C@]3(O)C[C@H](OC(=O)[C@H](O)[C@@H](NC(=O)c4ccccc4)c4ccccc4)C(C)=C1C3(C)C)[C@]1(OC(C)=O)CO[C@@H]1C[C@@H]2O + Nc1ccc(C#CCN(C(=O)Cc2ncc(C(F)(F)F)cc2C(F)(F)F)c2ccc(F)cc2)nn1
IC50 (second compound 0.0316 µM): < 0.00949 µM | IC50 (second compound 0.1 µM): < 0.00949 µM | IC50 (second compound 0.316 µM): < 0.00949 µM | IC50 (second compound 1 µM): < 0.00949 µM | IC50 (second compound 3.16 µM): < 0.00949 µM | IC50 (second compound 10 µM): < 0.00949 µM | viability, T/C (second compound 0.0316 µM, first compound 0.00949 µM): 6.03% | viability, T/C (second compound 0.0316 µM, first compound 0.03 µM): 5.37% | viability, T/C (second compound 0.0316 µM, first compound 0.0949 µM): 4.33% | viability, T/C (second compound 0.0316 µM, first compound 0.3 µM): 4.12% | viability, T/C (second compound 0.0316 µM, first compound 0.949 µM): 5.17% | viability, T/C (second compound 0.0316 µM, first compound 3 µM): 4.92% | viability, T/C (second compound 0.1 µM, first compound 0.00949 µM): 6.43% | viability, T/C (second compound 0.1 µM, first compound 0.03 µM): 5.72% | viability, T/C (second compound 0.1 µM, first compound 0.0949 µM): 5.37% | viability, T/C (second compound 0.1 µM, first compound 0.3 µM): 3.72% | viability, T/C (second compound 0.1 µM, first compound 0.949 µM): 4.36% | viability, T/C (second compound 0.1 µM, first compound 3 µM): 5.13% | viability, T/C (second compound 0.316 µM, first compound 0.00949 µM): 6.26% | viability, T/C (second compound 0.316 µM, first compound 0.03 µM): 5.71% | viability, T/C (second compound 0.316 µM, first compound 0.0949 µM): 3.79% | viability, T/C (second compound 0.316 µM, first compound 0.3 µM): 4.86% | viability, T/C (second compound 0.316 µM, first compound 0.949 µM): 4.32% | viability, T/C (second compound 0.316 µM, first compound 3 µM): 5.03% | viability, T/C (second compound 1 µM, first compound 0.00949 µM): 6.64% | viability, T/C (second compound 1 µM, first compound 0.03 µM): 7.67% | viability, T/C (second compound 1 µM, first compound 0.0949 µM): 5.72% | viability, T/C (second compound 1 µM, first compound 0.3 µM): 4.36% | viability, T/C (second compound 1 µM, first compound 0.949 µM): 4.31% | viability, T/C (second compound 1 µM, first compound 3 µM): 4.88% | viability, T/C (second compound 3.16 µM, first compound 0.00949 µM): 6.84% | viability, T/C (second compound 3.16 µM, first compound 0.03 µM): 4.76% | viability, T/C (second compound 3.16 µM, first compound 0.0949 µM): 4.25% | viability, T/C (second compound 3.16 µM, first compound 0.3 µM): 4.05% | viability, T/C (second compound 3.16 µM, first compound 0.949 µM): 5.59% | viability, T/C (second compound 3.16 µM, first compound 3 µM): 4.37% | viability, T/C (second compound 10 µM, first compound 0.00949 µM): 6.5% | viability, T/C (second compound 10 µM, first compound 0.03 µM): 4.13% | viability, T/C (second compound 10 µM, first compound 0.0949 µM): 4.66% | viability, T/C (second compound 10 µM, first compound 0.3 µM): 4.52% | viability, T/C (second compound 10 µM, first compound 0.949 µM): 4.25% | viability, T/C (second compound 10 µM, first compound 3 µM): 4.89%

COc1cc(C2c3cc4c(cc3C(OC3OC5COC(C)OC5C(O)C3O)C3COC(=O)C23)OCO4)cc(OC)c1O (centres undefined) + Cc1cccc(N(C)C(=O)C2C(O)CCN2c2nc(C)cc(C(F)(F)F)c2C#N)c1
IC50 (second compound 0.0316 µM): 1.5 µM | IC50 (second compound 0.1 µM): 1.52 µM | IC50 (second compound 0.316 µM): 1.36 µM | IC50 (second compound 1 µM): 1.3 µM | IC50 (second compound 3.16 µM): 1.07 µM | IC50 (second compound 10 µM): 0.886 µM | viability, T/C (second compound 0.0316 µM, first compound 0.0316 µM): 97.9% | viability, T/C (second compound 0.0316 µM, first compound 0.1 µM): 108% | viability, T/C (second compound 0.0316 µM, first compound 0.316 µM): 87.6% | viability, T/C (second compound 0.0316 µM, first compound 1 µM): 66.1% | viability, T/C (second compound 0.0316 µM, first compound 3.16 µM): 23.4% | viability, T/C (second compound 0.0316 µM, first compound 10 µM): 10.1% | viability, T/C (second compound 0.1 µM, first compound 0.0316 µM): 102% | viability, T/C (second compound 0.1 µM, first compound 0.1 µM): 99.5% | viability, T/C (second compound 0.1 µM, first compound 0.316 µM): 89.6% | viability, T/C (second compound 0.1 µM, first compound 1 µM): 65.8% | viability, T/C (second compound 0.1 µM, first compound 3.16 µM): 24% | viability, T/C (second compound 0.1 µM, first compound 10 µM): 11.7% | viability, T/C (second compound 0.316 µM, first compound 0.0316 µM): 101% | viability, T/C (second compound 0.316 µM, first compound 0.1 µM): 102% | viability, T/C (second compound 0.316 µM, first compound 0.316 µM): 87.7% | viability, T/C (second compound 0.316 µM, first compound 1 µM): 61.5% | viability, T/C (second compound 0.316 µM, first compound 3.16 µM): 21.8% | viability, T/C (second compound 0.316 µM, first compound 10 µM): 9.93% | viability, T/C (second compound 1 µM, first compound 0.0316 µM): 111% | viability, T/C (second compound 1 µM, first compound 0.1 µM): 104% | viability, T/C (second compound 1 µM, first compound 0.316 µM): 88.3% | viability, T/C (second compound 1 µM, first compound 1 µM): 60.6% | viability, T/C (second compound 1 µM, first compound 3.16 µM): 21.1% | viability, T/C (second compound 1 µM, first compound 10 µM): 11.1% | viability, T/C (second compound 3.16 µM, first compound 0.0316 µM): 106% | viability, T/C (second compound 3.16 µM, first compound 0.1 µM): 92.9% | viability, T/C (second compound 3.16 µM, first compound 0.316 µM): 82.1% | viability, T/C (second compound 3.16 µM, first compound 1 µM): 52.5% | viability, T/C (second compound 3.16 µM, first compound 3.16 µM): 23.1% | viability, T/C (second compound 3.16 µM, first compound 10 µM): 13.2% | viability, T/C (second compound 10 µM, first compound 0.0316 µM): 111% | viability, T/C (second compound 10 µM, first compound 0.1 µM): 105% | viability, T/C (second compound 10 µM, first compound 0.316 µM): 78.5% | viability, T/C (second compound 10 µM, first compound 1 µM): 47% | viability, T/C (second compound 10 µM, first compound 3.16 µM): 21.7% | viability, T/C (second compound 10 µM, first compound 10 µM): 10.5%
